Source: publication PMC3209708 (Journal of medicinal chemistry, 2011)
pIC50: −log10 of the molar value. Like-named read-outs stand apart in the source and are kept apart here.

What was measured:
FRα = FRα (Homo sapiens, UniProt P15328); settings: RT16 cells, 50 nM [3H]folic acid, folic acid = 1
FRβ = FRβ (Homo sapiens, UniProt P14207); settings: D4 cells, 50 nM [3H]folic acid, folic acid = 1
[1] = system: subcutaneous human IGROV1 ovarian tumors; assay: In vivo efficacy trial, IGROV1 xenografts; design: species or system female ICR SCID mice
hPCFT [2] = molecular target: T1, hPCFT (Homo sapiens, UniProt Q96NT5); assay: hPCFT transport assays with [3H]MTX in R2/hPCFT4 cells; format: cell-based; settings: 10 µM competitor, 0.5 µM [3H]MTX, pH 5.5 to pH 7.2, R2/hPCFT4 cells
T1 sequence (Q96NT5 1-459): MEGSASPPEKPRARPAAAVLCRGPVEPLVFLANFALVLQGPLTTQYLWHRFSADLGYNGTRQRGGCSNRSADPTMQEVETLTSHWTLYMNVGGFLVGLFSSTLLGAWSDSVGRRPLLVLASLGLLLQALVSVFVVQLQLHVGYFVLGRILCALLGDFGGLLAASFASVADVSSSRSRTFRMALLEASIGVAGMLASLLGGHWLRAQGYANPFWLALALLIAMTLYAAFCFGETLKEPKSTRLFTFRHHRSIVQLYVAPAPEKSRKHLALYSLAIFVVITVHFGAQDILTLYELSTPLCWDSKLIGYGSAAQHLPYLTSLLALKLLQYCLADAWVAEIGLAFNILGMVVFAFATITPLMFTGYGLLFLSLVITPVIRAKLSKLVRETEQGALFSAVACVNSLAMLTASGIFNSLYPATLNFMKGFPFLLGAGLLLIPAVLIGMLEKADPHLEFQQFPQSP

hPCFT [3] = molecular target: T1, hPCFT; assay: Electrophysiology, Xenopus oocytes injected with hPCFT cRNA; format: cell-based; settings: 5 µM, pH 5.5, clamped at -90 mV
R2/hPCFT4 cells = assay: Nucleoside/AICA protection from growth inhibition; format: cell-based, Chinese hamster; settings: adenosine 60 µM, thymidine 10 µM, AICA 320 µM
PC43-10 cells (hRFC) = settings: read-out: IC50 PC43-10; cited from earlier work
hPCFT [4] = molecular target: T1, hPCFT; settings: Lineweaver-Burke plots, ref 14 (Wang et al.), cited from earlier work

Sequence of FRα (P15328 25-257): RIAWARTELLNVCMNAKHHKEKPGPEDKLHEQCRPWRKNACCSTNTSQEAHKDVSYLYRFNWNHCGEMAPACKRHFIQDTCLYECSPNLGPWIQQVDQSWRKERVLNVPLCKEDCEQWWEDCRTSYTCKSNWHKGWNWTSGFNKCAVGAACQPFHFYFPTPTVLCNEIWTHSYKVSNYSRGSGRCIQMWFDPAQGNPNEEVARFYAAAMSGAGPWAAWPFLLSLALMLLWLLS
Sequence of FRβ (P14207 17-255): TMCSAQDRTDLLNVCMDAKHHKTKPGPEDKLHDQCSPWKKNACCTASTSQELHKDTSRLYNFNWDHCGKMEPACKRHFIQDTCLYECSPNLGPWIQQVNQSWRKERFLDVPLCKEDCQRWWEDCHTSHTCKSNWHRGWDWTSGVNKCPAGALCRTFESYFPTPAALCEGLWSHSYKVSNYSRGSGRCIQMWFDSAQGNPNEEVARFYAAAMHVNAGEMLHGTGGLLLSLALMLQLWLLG

## Nc1nc2[nH]c(CCc3ccc(C(=O)N[C@@H](CCC(=O)O)C(=O)O)s3)cc2c(=O)[nH]1 [Compound 2, N-({5-[(2-amino-4-oxo-4,7-dihydro-3H-pyrrolo[2,3-d]pyrimidin-6-yl)ethyl]thiophen-2-yl}carbonyl)-L-glutamic acid]
FRα
  relative binding affinity for FRα: undetectable
FRβ
  relative binding affinity for FRβ: undetectable

## Nc1nc2[nH]c(CCCc3ccc(C(=O)N[C@@H](CCC(=O)O)C(=O)O)s3)cc2c(=O)[nH]1 [Compound 3, N-({5-[(2-amino-4-oxo-4,7-dihydro-3H-pyrrolo[2,3-d]pyrimidin-6-yl)propyl]thiophen-2-yl}carbonyl)-L-glutamic acid]
[1]; 25 mg/kg/inj, folate-deficient diet
  full recovery of body weight, time post last treatment: 8 days
[1]; 40 mg/kg/inj, folate-deficient diet
  full recovery of body weight, time post last treatment: 10 days
[1]; folate-deficient diet
  host recovery time: ≤ 10 days
[1]; standard folate replete diet
  reversible body weight loss: 2.7–5%
hPCFT [2]
  inhibition of hPCFT-mediated [3H]MTX transport: potent and essentially equivalent inhibitors
hPCFT [3]
  substrate-induced current: induced currents
R2/hPCFT4 cells
  protection from growth inhibition by nucleosides/AICA: abolished by either adenosine or AICA alone

## Nc1nc2[nH]c(CCCCc3ccc(C(=O)N[C@@H](CCC(=O)O)C(=O)O)s3)cc2c(=O)[nH]1 [Compound 4]
[1]; 112.5 mg/kg/injection iv Q4dx5, folate-deficient diet
  gross log kill: 1.2
PC43-10 cells (hRFC)
  pIC50: < 6.00

## Nc1nc(N)c2nc(CNc3ccc(C(=O)N[C@@H](CCCNC(=O)c4ccccc4C(=O)O)C(=O)O)cc3)cnc2n1 [Compound 9, N^α-(4-amino-4-deoxypteroyl)-N^δ-hemiphthaloyl-L-ornithine]
hPCFT [2]
  inhibition of hPCFT-mediated [3H]MTX transport: did not inhibit

## Nc1nc2c(c(=O)[nH]1)C[C@@H](CCc1ccc(C(=O)N[C@@H](CCC(=O)O)C(=O)O)cc1)CN2 [LMTX, 5,10-dideaza-5,6,7,8-tetrahydrofolate]
R2/hPCFT4 cells
  protection from growth inhibition by nucleosides/AICA: abolished by either adenosine or AICA alone

## CN(Cc1cnc2nc(N)nc(N)c2n1)c1ccc(C(=O)N[C@@H](CCC(=O)O)C(=O)O)cc1 [MTX, methotrexate]
hPCFT [4]; pH 5.5
  Kt: 0.28 ± 0.02 µM
  Vmax: 31.23 ± 4.31 pmol/mg/min
hPCFT [4]; pH 6.8
  Kt: 4.52 ± 0.19 µM
  Vmax: 13.72 ± 2.26 pmol/mg/min

## Nc1nc2[nH]cc(CCc3ccc(C(=O)N[C@@H](CCC(=O)O)C(=O)O)cc3)c2c(=O)[nH]1 [PMX, N-{4-[2-(2-amino-3,4-dihydro-4-oxo-7H-pyrrolo[2,3-d]pyrimidin-5-yl)ethyl]benzoyl}-L-glutamic acid]
hPCFT [2]
  inhibition of hPCFT-mediated [3H]MTX transport: potent and essentially equivalent inhibitors
R2/hPCFT4 cells
  protection from growth inhibition by nucleosides/AICA: completely reversed by adenosine combined with thymidine
